A word on the Ki: it is a dissociation constant, usually derived from enzyme kinetics or from competition with a known ligand.

Structures can show the parent of a compound that is named as a salt.

Data on 20 compounds can be found in patent US20110105555A1, “SUBSTITUTED N-IMIDAZO[2,1-B]THIAZOLE-5-SULFONAMIDE DERIVATIVES AS 5-HT6 LIGANDS” (priority 2008, published 2011).

The target of assay [1] is T1, 5HT6-human recombinant receptor (Homo sapiens, UniProt P50406). Put plainly: Binding to serotonin receptor 5-HT6 ([3H]-LSD radioligand, HEK-293 cell membranes). The following applies: [3H]-LSD 2.7 nM, 60 minutes at 37° C., tests in triplicate. Also on record: purchased Receptor Biology; host or cells: HEK-293 cells (membranes). How it is done:
Binding to Serotonin Receptor 5ht6
Cell membranes of HEK-293 cells expressing the 5HT6-human recombinant receptor were supplied by Receptor Biology. In said membranes the receptor concentration is 2.18 pmol/mg protein and the protein concentration is 9.17 mg/ml. The experimental protocol follows the method of B. L. Roth et al. [B. L. Roth et al., The Journal of Pharmacology and Experimental Therapeutics, 1994, 268, 1403] with the following slight changes. The respective part of the literature description is hereby incorporated by reference and forms part of the disclosure.
The commercial membrane is diluted (1:40 dilution) with the binding buffer: 50 mM Tris-HCl, 10 mM MgCl2, 0.5 mM EDTA (pH 7.4). The radioligand used is [^3H]-LSD at a concentration of 2.7 nM with a final volume of 200 μl. incubation is initiated by adding 100 μl of membrane suspension, (≈22.9 μg membrane protein), and is prolonged for 60 minutes at a temperature of 37° C. The incubation is ended by fast filtration in a Brandel Cell Harvester through fiber glass filters made by Schleicher & Schnell GF 3362 pretreated with a solution of polyethylenimine at 0.5%. The filters are washed three times with three milliliters of buffer Tris-HCl 50 mM pH 7.4. The filters are transferred to flasks and 5 ml of Ecoscint H liquid scintillation cocktail are added to each flask. The flasks are allowed to reach equilibrium for several hours before counting with a Wallac Winspectral 1414 scintillation counter. Non-specific binding is determined in the presence of 100 μM of serotonin, Tests were made in triplicate. The inhibition constants (Ki, nM) were calculated by non-linear regression analysis using the program EBDA/LIGAND described in Munson and Rodbard, Analytical Biochemistry, 1980, 107, 220, which is hereby incorporated by reference and forms part of the disclosure.

For assay [2] the following is noted: in vivo; cited from earlier work.
Assay [3] has as its target T1, 5HT6-human recombinant receptor. To be noted: cited from earlier work.

T1 sequence (P50406 whole entry): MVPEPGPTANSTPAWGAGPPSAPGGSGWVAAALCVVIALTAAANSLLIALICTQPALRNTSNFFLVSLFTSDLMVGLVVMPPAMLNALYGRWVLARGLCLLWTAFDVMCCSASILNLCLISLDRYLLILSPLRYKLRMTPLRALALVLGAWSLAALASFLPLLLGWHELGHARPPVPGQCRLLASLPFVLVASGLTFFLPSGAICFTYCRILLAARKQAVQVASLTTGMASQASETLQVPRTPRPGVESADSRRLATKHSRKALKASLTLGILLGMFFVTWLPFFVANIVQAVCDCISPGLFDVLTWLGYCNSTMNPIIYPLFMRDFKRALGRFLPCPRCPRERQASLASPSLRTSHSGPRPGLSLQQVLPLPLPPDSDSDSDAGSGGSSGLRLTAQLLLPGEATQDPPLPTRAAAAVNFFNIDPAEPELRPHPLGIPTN

`O=S(=O)(Nc1ccc2c(c1)CCC2)c1c(Cl)nc2sccn12` [Compound 1, 6-Chloro-imidazo[2,1-b] thiazole-5-sulfonic acid indan-5-ylamide]: the Ki in assay [1] turned out to be 0.0111 µM. Still for that read-out and setting: the result for `O=S(=O)(Nc1ccc2ncsc2c1)c1c(Cl)nc2sccn12` [Compound 3, 6-Chloro-imidazo[2,1-b] thiazole-5-sulfonic acid benzothiazol-6-ylamide] reads 0.0127 µM; that for `Cc1nc2cc(NS(=O)(=O)c3c(Cl)nc4sccn34)ccc2s1` [Compound 4, 6-Chloro-imidazo[2,1-b] thiazole-5-sulfonic acid (2-methyl-benzothiazol-5-yl)-amide], 0.0145 µM; that for `Cn1ccc2cc(NS(=O)(=O)c3c(Cl)nc4sccn34)ccc21` [Compound 15, 6-Chloro-imidazo[2,1-b] thiazole-5-sulfonic acid (1methyl-1H-indol-5-yl)-amide], 0.023 µM. The same measure, in the same setting: under `CN(C)c1ccc(NS(=O)(=O)c2c(Cl)nc3sccn23)cc1` [Compound 16, 6-Chloro-imidazo[2,1-b] thiazole-5-sulfonic acid (4-dimethylamino-phenyl)-amide] stands 0.0087 µM; under `CC(=O)N1CCc2cc(NS(=O)(=O)c3c(Cl)nc4sccn34)ccc21` [Compound 19, 6-Chloro-imidazo[2,1-b]thiazole-5-sulfonic acid (1-acetyl-2,3-dihydro-1H-indol-5-yl)-amide], 0.0016 µM; under `CC(=O)N1CCc2ccc(NS(=O)(=O)c3c(Cl)nc4sccn34)cc21` [Compound 20, 6-Chloro-imidazo[2,1-b]thiazole-5-sulfonic acid (1-acetyl-2,3-dihydro-1H-indol-6-yl)-amide], 0.0128 µM. On the same count and under the same terms, under `O=S(=O)(Nc1ccc2c(c1)CCN2)c1c(Cl)nc2sccn12` [Compound 23, 6-Chloro-imidazo[2,1-b]thiazole-5-sulfonic acid (2,3-dihydro-1H-indol-5-yl)-amide hydrochloride] stands 0.02 µM; under `O=S(=O)(Nc1ccc2[nH]ncc2c1)c1c(Cl)nc2sccn12` [Compound 25, 6-Chloro-imidazo[2,1-b]thiazole-5-sulfonic acid (1H-indazol-5-yl)-amide hydrochloride], 0.0057 µM; under `O=C1CCc2ccc(NS(=O)(=O)c3c(Cl)nc4sccn34)cc21` [Compound 28, 6-Chloro-imidazo[2,1-b]thiazole-5-sulfonic acid (3-oxo-indan-5-yl)-amide], 0.0071 µM. On to `O=S(=O)(Nc1ccc2c(c1)CCCC2)c1c(Cl)nc2sccn12` [Compound 30, 6-Chloro-imidazo[2,1-b]thiazole-5-sulfonic acid (5,6,7,8-tetrahydro-naphthalen-2-yl)-amide], for which the inhibition constant Ki in assay [1] was determined as 0.019 µM. The same measure, in the same setting: the result for `O=S(=O)(Nc1ccc2c(c1)COC2)c1c(Cl)nc2sccn12` [Compound 31, 6-Chloro-imidazo[2,1-b]thiazole-5-sulfonic acid (1,3-dihydro-isobenzo furan-5-yl)-amide] reads 0.068 µM; that for `CCN(CC)c1ccc(NS(=O)(=O)c2c(Cl)nc3sccn23)cc1` [Compound 32, 6-Chloro-imidazo[2,1-b]thiazole-5-sulfonic acid (4-diethylamino-phenyl)-amide hydrochloride], 0.0054 µM. As to `O=S(=O)(Nc1ccc2c(c1)NCC2)c1c(Cl)nc2sccn12` [Compound 34, 6-Chloro-imidazo[2,1-b]thiazole-5-sulfonic acid (2,3-dihydro-1H-indol-6-yl)-amide], the inhibitory constant (Ki) in assay [1] came out at 0.0074 µM. Still for that read-out and setting: under `O=S(=O)(Nc1ccc2[nH]ccc2c1)c1c(Br)nc2sccn12` [Compound 36, 6-Bromo-imidazo[2,1-b]thiazole-5-sulfonic acid (1H-indol-5-yl)-amide] stands 0.01 µM; under `CC(=O)N1CCc2cc(NS(=O)(=O)c3c(Br)nc4sccn34)ccc21` [Compound 37, 6-Bromo-imidazo[2,1-b]thiazole-5-sulfonic acid (1-acetyl-2,3-dihydro-1H-indol-5-yl)-amide], 0.0013 µM; under `CC(=O)N1CCc2ccc(NS(=O)(=O)c3c(Br)nc4sccn34)cc21` [Compound 38, 6-Bromo-imidazo[2,1-b]thiazole-5-sulfonic acid (1-acetyl-2,3-dihydro-1H-indol-6-yl)-amide], 0.0372 µM. The same measure, in the same setting: under `O=C1CCc2ccc(NS(=O)(=O)c3c(Br)nc4sccn34)cc21` [Compound 41, 6-Bromo-imidazo[2,1-b]thiazole-5-sulfonic acid (3-oxo-indan-5-yl)-amide hydrochloride] stands 0.0049 µM; under `CC(C)(C)OC(=O)n1ncc2cc(NS(=O)(=O)c3c(Br)nc4sccn34)ccc21` [Compound 60, 5-(6-Bromo-imidazo[2,1-b]thiazole-5-sulfonylamino)-indazole-1-carboxylic acid tert-butyl ester], 0.0066 µM. Take `CN(C)CCc1c[nH]c2ccc(NS(=O)(=O)c3ccc4c(Cl)cccc4c3)cc12` [Compound E-6837, 5-chloro-N-[3-(2-(dimethylamino)ethyl)-1H-indol-5-yl]naphthalene-2-sulphonamide]: in assay [2], the body weight result is “significant body weight loss” and the food intake entry was “reduction in the food intake”. Moreover, the “binding for the recombinant human 5-HT6 receptor” value in assay [3] is “selective and high affinity binding”.
